Literature values as cited in US12678439B2 (DOUGLAS PHARMACEUTICALS LIMITED, priority 2018, dated 2026).

In the case of `Cc1cccc(C)c1OCC(=O)N[C@@H](Cc1ccccc1)[C@@H](O)C[C@H](Cc1ccccc1)NC(=O)[C@H](C(C)C)N1CCCNC1=O` (relative stereo) [Lopinavir, [1S-[1R*(R*), 3R*, 4R*]]—N-[4-[(2,6-dimethylphenoxyl0acetyl]amino]-3-hydroxy-5-phenyl-1-(phenylmethyl)pentyl]tetrahydro-alpha-(1-methylethyl)-2-oxo-1(2H)-pyrimidineacetamide], the solubility in water is given as “virtually insoluble”.
